Reference: ChEMBL document CHEMBL1909046, “DrugMatrix in vitro pharmacology data”

Legend:
[1] = DRUGMATRIX: Purinergic P2X radioligand binding (ligand: [3H] alpha, beta-Methylene-ATP); assay type: cell membranes, Oryctolagus cuniculus, New Zealand albino, Urinary bladder, Membrane; settings: Not Active = under 50% inhibition at 10 µM
[2] = biological target: T1, Alpha-1A adrenergic receptor (Rattus norvegicus, UniProt P43140); test: DRUGMATRIX: Alpha-1A adrenergic receptor radioligand binding (ligand: prazosin); assay type: cell membranes, Wistar, Submaxillary gland, Membrane; settings: Not Active = under 50% inhibition at 10 µM
T1 sequence (P43140 whole entry): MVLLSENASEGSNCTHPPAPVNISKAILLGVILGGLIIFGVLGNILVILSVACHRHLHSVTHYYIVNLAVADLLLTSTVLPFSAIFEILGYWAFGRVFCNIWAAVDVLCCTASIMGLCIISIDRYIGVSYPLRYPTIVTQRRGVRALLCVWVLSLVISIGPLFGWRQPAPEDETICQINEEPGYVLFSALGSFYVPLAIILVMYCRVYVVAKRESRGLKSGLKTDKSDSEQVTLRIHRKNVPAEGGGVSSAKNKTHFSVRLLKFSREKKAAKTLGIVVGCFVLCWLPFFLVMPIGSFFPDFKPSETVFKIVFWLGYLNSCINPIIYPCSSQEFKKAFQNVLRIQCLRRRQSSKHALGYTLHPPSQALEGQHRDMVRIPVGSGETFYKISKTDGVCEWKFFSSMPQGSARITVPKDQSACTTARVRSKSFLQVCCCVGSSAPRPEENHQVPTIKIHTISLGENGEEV

D(1A) dopamine receptor = D(1A) dopamine receptor (Homo sapiens, UniProt P21728); test: DRUGMATRIX: Dopamine D1 radioligand binding (ligand: [3H] SCH-23390); assay type: cell membranes, CHO, Membrane; settings: Not Active = under 50% inhibition at 10 µM
Estrogen receptor = biological target: T2, Estrogen receptor (Homo sapiens, UniProt P03372); settings: sf9; note: in other assays of this panel Not Active means under 50% inhibition at 10 µM
T2 sequence (P03372 whole entry): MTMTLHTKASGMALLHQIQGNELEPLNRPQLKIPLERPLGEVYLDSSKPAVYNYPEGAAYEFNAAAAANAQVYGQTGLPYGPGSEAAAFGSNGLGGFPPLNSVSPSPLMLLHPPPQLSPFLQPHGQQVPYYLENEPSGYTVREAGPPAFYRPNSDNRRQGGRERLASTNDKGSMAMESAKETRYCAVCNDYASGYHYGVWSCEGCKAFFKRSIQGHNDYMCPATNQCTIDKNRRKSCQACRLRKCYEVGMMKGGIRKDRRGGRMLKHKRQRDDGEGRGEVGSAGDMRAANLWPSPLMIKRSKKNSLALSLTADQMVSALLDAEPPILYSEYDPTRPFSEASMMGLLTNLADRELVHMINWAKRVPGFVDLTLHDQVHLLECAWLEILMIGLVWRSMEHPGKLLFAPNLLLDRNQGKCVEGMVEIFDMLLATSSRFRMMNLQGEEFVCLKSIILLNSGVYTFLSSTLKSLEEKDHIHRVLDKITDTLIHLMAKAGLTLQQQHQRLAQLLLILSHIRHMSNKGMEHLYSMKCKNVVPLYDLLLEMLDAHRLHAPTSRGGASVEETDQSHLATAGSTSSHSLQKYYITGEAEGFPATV

[3] = biological target: T3, Cysteinyl leukotriene receptor 1 (Homo sapiens, UniProt Q9Y271); assay type: cell membranes, Membrane; settings: cho-k1; note: in other assays of this panel Not Active means under 50% inhibition at 10 µM
T3 sequence (Q9Y271 whole entry): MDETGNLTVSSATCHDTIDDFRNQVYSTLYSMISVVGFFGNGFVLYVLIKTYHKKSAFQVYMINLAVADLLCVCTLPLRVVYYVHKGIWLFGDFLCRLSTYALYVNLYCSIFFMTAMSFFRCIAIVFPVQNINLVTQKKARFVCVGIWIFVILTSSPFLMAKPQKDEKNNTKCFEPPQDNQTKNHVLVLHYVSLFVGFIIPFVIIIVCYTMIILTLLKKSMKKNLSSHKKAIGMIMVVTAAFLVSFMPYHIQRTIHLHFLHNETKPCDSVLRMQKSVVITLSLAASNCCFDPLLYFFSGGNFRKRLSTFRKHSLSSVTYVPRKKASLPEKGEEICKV

Thromboxane-A synthase = biological target: T4, Thromboxane-A synthase (Homo sapiens, UniProt P24557); test: biochemical; assay type: tissue-based, Platelet; settings: platelet;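 note: enzyme inhibition assay with PGH2 supplied as substrate; in other assays of this panel Not Active means under 50% inhibition at 10 µM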
T4 sequence (P24557 whole entry): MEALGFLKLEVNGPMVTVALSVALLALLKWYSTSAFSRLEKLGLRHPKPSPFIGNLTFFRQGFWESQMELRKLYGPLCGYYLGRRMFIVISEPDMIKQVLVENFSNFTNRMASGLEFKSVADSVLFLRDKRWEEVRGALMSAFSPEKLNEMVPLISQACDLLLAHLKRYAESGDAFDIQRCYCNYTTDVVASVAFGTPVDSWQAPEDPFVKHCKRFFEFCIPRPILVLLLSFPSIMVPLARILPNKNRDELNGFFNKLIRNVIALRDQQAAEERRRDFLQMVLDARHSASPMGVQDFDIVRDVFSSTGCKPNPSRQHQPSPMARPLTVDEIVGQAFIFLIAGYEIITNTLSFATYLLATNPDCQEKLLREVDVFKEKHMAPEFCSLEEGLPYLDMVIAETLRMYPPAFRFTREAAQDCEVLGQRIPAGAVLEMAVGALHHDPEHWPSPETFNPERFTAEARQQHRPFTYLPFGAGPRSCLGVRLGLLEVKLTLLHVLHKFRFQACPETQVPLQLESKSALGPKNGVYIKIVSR

Calcitonin receptor = biological target: T5, Calcitonin receptor (Homo sapiens, UniProt P30988); assay type: cell membranes, Membrane; settings: t47d; note: in other assays of this panel Not Active means under 50% inhibition at 10 µM
T5 sequence (P30988 whole entry): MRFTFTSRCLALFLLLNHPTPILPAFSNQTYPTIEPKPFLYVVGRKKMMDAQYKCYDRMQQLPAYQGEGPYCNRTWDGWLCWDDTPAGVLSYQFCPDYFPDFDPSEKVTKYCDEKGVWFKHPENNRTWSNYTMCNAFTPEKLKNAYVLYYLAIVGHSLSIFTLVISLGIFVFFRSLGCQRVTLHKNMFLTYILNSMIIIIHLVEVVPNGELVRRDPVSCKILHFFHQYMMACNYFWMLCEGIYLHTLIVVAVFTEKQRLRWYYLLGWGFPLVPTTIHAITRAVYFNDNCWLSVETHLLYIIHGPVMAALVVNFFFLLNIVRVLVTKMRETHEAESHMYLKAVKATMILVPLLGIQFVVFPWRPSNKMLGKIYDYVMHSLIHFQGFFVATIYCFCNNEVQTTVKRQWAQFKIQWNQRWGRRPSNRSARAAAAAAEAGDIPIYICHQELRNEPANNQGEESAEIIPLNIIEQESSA

D(1A) dopamine receptor, sequence (P21728 whole entry): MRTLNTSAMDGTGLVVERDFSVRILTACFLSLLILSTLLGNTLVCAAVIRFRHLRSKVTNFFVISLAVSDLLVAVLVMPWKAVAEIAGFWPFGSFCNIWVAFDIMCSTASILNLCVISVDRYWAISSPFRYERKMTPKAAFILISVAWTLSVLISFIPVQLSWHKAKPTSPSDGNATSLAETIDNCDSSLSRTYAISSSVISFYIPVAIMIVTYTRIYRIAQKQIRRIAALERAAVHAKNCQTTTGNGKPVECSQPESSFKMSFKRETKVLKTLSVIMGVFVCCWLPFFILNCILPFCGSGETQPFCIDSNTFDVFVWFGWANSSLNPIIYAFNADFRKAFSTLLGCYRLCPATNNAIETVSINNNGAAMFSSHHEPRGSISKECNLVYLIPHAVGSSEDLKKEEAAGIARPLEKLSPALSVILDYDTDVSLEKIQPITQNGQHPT

Molecule	IC50 [1]	Ki [1]	IC50 [2]	IC50 (D(1A) dopamine receptor; cho)	IC50 (Estrogen receptor)	IC50 [3]	IC50 (Thromboxane-A synthase)	IC50 (Calcitonin receptor)	Ki [2]	Ki (D(1A) dopamine receptor; cho)	Ki (Estrogen receptor)	Ki [3]	Ki (Thromboxane-A synthase)	Ki (Calcitonin receptor)	IC50 ([2]; read-out: IC50) [nM]	Ki ([2]; read-out: Ki) [nM]	IC50 (D(1A) dopamine receptor; read-out: IC50) [nM]	Ki (D(1A) dopamine receptor; read-out: Ki) [nM]
OCCN1CCN(CCCN2c3ccccc3Sc3ccc(Cl)cc32)CC1 [PERPHENAZINE]	Not Active	Not Active	Not Active	Not Active	Not Active	Not Active	Not Active	Not Active										
COC(=O)c1ccccc1O [METHYL SALICYLATE]	Not Active	Not Active	Not Active	Not Active	Not Active	Not Active	Not Active	Not Active										
C[C@H]([C@](O)(Cn1cncn1)c1ccc(F)cc1F)S(C)(=O)=O [GENACONAZOLE]	Not Active	Not Active	Not Active	Not Active	Not Active	Not Active	Not Active	Not Active										
Clc1cc2c(cc1Cl)Oc1cc(Cl)c(Cl)cc1O2 [2,3,7,8-TETRACHLORODIBENZO-P-DIOXIN]	Not Active	Not Active	Not Active	Not Active	Not Active	Not Active	Not Active	Not Active										
Nn1nnc2ccccc21	Not Active	Not Active	Not Active	Not Active	Not Active	Not Active	Not Active	Not Active										
COc1ccccc1OCC(O)COC(N)=O (centres undefined) [METHOCARBAMOL]	Not Active	Not Active	Not Active	Not Active	Not Active	Not Active	Not Active	Not Active										
CC(C(=O)O)c1ccc(-c2ccccc2)c(F)c1 (centres undefined) [FLURBIPROFEN]	Not Active	Not Active	Not Active	Not Active	Not Active	Not Active	Not Active	Not Active										
Cc1c(F)c(N2CCNC(C)C2)cc2c1c(=O)c(C(=O)O)cn2C1CC1 (centres undefined) [GREPAFLOXACIN]	Not Active	Not Active	Not Active	Not Active	Not Active	Not Active	Not Active	Not Active										
O=P1(N(CCCl)CCCl)NCCCO1 (centres undefined) [CYCLOPHOSPHAMIDE ANHYDROUS]	Not Active	Not Active	Not Active	Not Active	Not Active	Not Active	Not Active	Not Active										
INSULIN HUMAN	Not Active	Not Active	Not Active	Not Active	Not Active	Not Active	Not Active	Not Active	Not Active	Not Active	Not Active	Not Active	Not Active	Not Active				
CS(=O)(=O)OCCCCOS(C)(=O)=O [BUSULFAN]	Not Active	Not Active	Not Active	Not Active	Not Active	Not Active	Not Active	Not Active										
CC(C)(CO)C(O)C(=O)NCCCO (centres undefined) [PANTHENOL]	Not Active	Not Active	Not Active	Not Active	Not Active	Not Active	Not Active	Not Active										
O=C(O)c1cc(=O)c2c(OCC(O)COc3cccc4oc(C(=O)O)cc(=O)c34)cccc2o1 [CROMOLYN]	Not Active	Not Active	Not Active	Not Active	Not Active	Not Active	Not Active	Not Active										
CN1C[C@H](C(=O)N[C@]2(C)O[C@@]3(O)[C@@H]4CCCN4C(=O)[C@H](Cc4ccccc4)N3C2=O)C[C@@H]2c3cccc4[nH]cc(c34)C[C@H]21 [DIHYDROERGOTAMINE]	Not Active	Not Active			Not Active	Not Active	Not Active	Not Active							5.03	2.03	2390	1200
CC[C@H](C)C(=O)O[C@H]1C[C@@H](C)C=C2C=C[C@H](C)[C@H](CC[C@@H]3C[C@@H](O)CC(=O)O3)[C@H]21 [LOVASTATIN]	Not Active	Not Active	Not Active	Not Active	Not Active	Not Active	Not Active	Not Active										
CC[C@H](C)C(=O)O[C@H]1C[C@H](O)C=C2C=C[C@H](C)[C@H](CC[C@@H](O)C[C@@H](O)CC(=O)O)[C@H]21 [PRAVASTATIN]	Not Active	Not Active	Not Active	Not Active	Not Active	Not Active	Not Active	Not Active										
CCOC(=O)n1ccn(C)c1=S [CARBIMAZOLE]	Not Active	Not Active	Not Active	Not Active	Not Active	Not Active	Not Active	Not Active										
